Legend:
[1] = test system: Common cutworm (Spodoptela litura); test: Test Example 1: pesticidal effect of artificial diet irrigation treatment on Common cutworm; type: in vivo; conditions: artificial diet irrigated with 2 mL test solution, fourth instar larvae, after 6 days
[2] = test system: Common cutworm (Spodoptela litura); test: Test Example 2: pesticidal effect of artificial diet irrigation treatment on Common cutworm; type: in vivo; conditions: artificial diet irrigated with 2 mL test solution, fourth instar larvae, after 6 days
[3] = composition of the compound and esfenvalerate, Table 43
[4] = composition of the compound and fenpropathrin, Table 44
[5] = composition of the compound and esfenvalerate, Table 45
[6] = composition of the compound and fenpropathrin, Table 46

Row | SMILES | pesticidal efficacy against Common cutworm (Spodoptela litura) [1, 3] | pesticidal efficacy against Common cutworm (Spodoptela litura) [1, 4] | pesticidal efficacy against Common cutworm (Spodoptela litura) [2, 5] | pesticidal efficacy against Common cutworm (Spodoptela litura) [2, 6]
1 | CSc1cnccc1-c1nc2cc(C(F)(F)F)cnc2o1 [Compound 146, 2-(3-methylthiopyridin-4-yl)-6-(trifluoromethyl)oxazolo[5,4-b]pyridine] | high pesticidal efficacy | high pesticidal efficacy |  | 
2 | CC(C)(C)COc1cnccc1-c1nc2cc(C(F)(F)F)ccc2o1 [Compound 117, 2-[3-(2,2-dimethylpropoxy)pyridin-4-yl]-5-(trifluoromethyl)benzoxazole] |  |  | high pesticidal efficacy | high pesticidal efficacy
3 | FC(F)(F)c1cnc2oc(-c3ccncc3Cl)nc2c1 [Compound 139, 2-(3-chloropyridin-4-yl)-6-(trifluoromethyl)oxazolo[5,4-b]pyridine] | high pesticidal efficacy | high pesticidal efficacy |  | 
4 | FC(F)(F)c1ccc2oc(-c3ccncc3-c3cccnc3)nc2c1 [Compound 128, 4-(5-trifluoromethyl-benzoxazole-2-yl)-[3,3′]bipyridinyl] | high pesticidal efficacy | high pesticidal efficacy |  | 
5 | FC(F)(F)c1ccc2oc(-c3ccncc3Cl)nc2c1 [Compound 18, 2-(3-chloropyridin-4-yl)-5-(trifluoromethyl)benzoxazole] | high pesticidal efficacy | high pesticidal efficacy |  | 
6 | FC(F)(F)Sc1ccc2oc(-c3ccncc3Cl)nc2c1 [Compound 77, 2-(3-chloropyridin-4-yl)-5-(trifluoromethylthio)benzoxazole] | high pesticidal efficacy | high pesticidal efficacy |  | 
7 | FC(F)(F)COc1cnccc1-c1nc2cc(C(F)(F)F)ccc2o1 [Compound 39, 2-[3-(2,2,2-trifluoroethyl)oxypyridin-4-yl]-5-(trifluoromethyl)benzoxazole] |  |  | high pesticidal efficacy | high pesticidal efficacy
8 | CC(C)Oc1cnccc1-c1nc2cc(C(F)(F)F)ccc2o1 [Compound 70, 2-(3-isopropoxypyridin-4-yl)-5-(trifluoromethyl)benzoxazole] | high pesticidal efficacy | high pesticidal efficacy |  | 
9 | CCc1cnccc1-c1nc2cc(OC(F)(F)F)ccc2o1 [Compound 109, 2-(3-ethylpyridin-4-yl)-5-(trifluoromethoxy)benzoxazole] | high pesticidal efficacy | high pesticidal efficacy |  | 
10 | CC(C)COc1cnccc1-c1nc2cc(C(F)(F)F)ccc2o1 [Compound 116, 2-(3-isobutoxypyridin-4-yl)-5-(trifluoromethyl)benzoxazole] |  |  | high pesticidal efficacy | high pesticidal efficacy
11 | CCc1cnccc1-c1nc2cc(C(F)(F)F)cnc2o1 [Compound 143, 2-(3-ethylpyridin-4-yl)-6-(trifluoromethyl)oxazolo[5,4-b]pyridine] | high pesticidal efficacy | high pesticidal efficacy |  | 
12 | FC(F)(F)COc1cnccc1-c1nc2cc(C(F)(F)F)cnc2o1 [Compound 163] |  |  | high pesticidal efficacy | high pesticidal efficacy

From patent publication US20120252803A1, “COMPOSITION AND METHOD FOR CONTROLLING ARTHROPOD PESTS” (SUMITOMO CHEMICAL COMPANY, LIMITED, priority 2009, published 2012)
